System: 349418-098-R-PDC complex spheroid viability
Assay: Anticancer human tumor 349418-098-R-PDC patient-derived lung adenocarcinoma cell line growth inhibition [RAS]
Conditions: for viability, T/C: stronger effect = lower value; active = viability on the fitted dose curve at most 10% of control; inactive = the rest
From the text: RAS pathway inhibitors in Combinations in Complex Spheroids
A high-throughput screen of multi-cell type tumor spheroids was designed to identify active combinations of RAS pathway inhibitors and targeted small molecules. Complex spheroids include a stromal component modeled by human endothelial cells (HUVEC) and fibroblasts modeled by human mesenchymal stem cells (MSCs). The concentration ranges selected for each drug and investigational agent were based upon clinically achievable concentrations if the clinical Cmax of the agent was known.
Compounds. The drugs and investigational agents: abemaciclib (NSC768073), cobimetinib (NSC768068), divarasib (GDC6063, NSC841802), docetaxel (NSC628503), GDC-1971 (RLY-1971, NSC841576), gemcitabine (NSC613327), inavolisib (NSC800729), ipatasertib (NSC767898), KB-0742 (NSC834161), MRTX-1133 (NSC836407), osimertinib (NSC779217), RMC-4630 (NSC839698), RMC-6236 (NSC851965), RMC-6291 (NSC852671), Ro-3306 (NSC812927), sapanisertib (NSC764658), SN-38 (NSC673596), staurosporine (NSC755774), SY5609 (NSC837396), and tovorafenib (DAY101, NSC766906), were obtained from the National Cancer Institute (NCI) Developmental Therapeutics Program Chemical Repository. The FDA-approved anticancer drug set is available from the NCI Developmental Therapeutics Program. […] The stock solutions were prepared in dimethyl sulfoxide (DMSO, Sigma-Aldrich, St. Louis, MO, cat. D2650) at 800-fold the tested concentration and stored at -70 degrees C prior to their use. All drugs and investigational agents were tested over a range starting from a high concentration at or near the clinical Cmax and decreasing in half-log increments. If the clinical Cmax for an agent had not been determined, the highest concentration tested was 10 microM.
Cell Culture. All cells were maintained in an incubator at 37 degrees C and 5% CO2 with 95% humidity. The PDC lines were cultured according to standard operating procedures established by the NCI PDMR. All PDCs were thawed and cultured in Matrigel-coated flasks prepared with a working solution of 1X Ham's F-12 nutrient mix, without supplementation (Invitrogen, Waltham, MA, cat. 11765054), 100 U/mL penicillin-streptomycin (Invitrogen, cat. 15140122), and 2.5% Matrigel (Corning Inc., Corning, NY, cat. 354248) for the first three passages. The 362531-283-R-J2-PDC and 782815-120-R-J1-PDC lines were cultured in 6C/Colon 1B media, which includes advanced DMEM/F-12 (Thermo Fisher Scientific, cat. 12634028), 10 mM HEPES (Thermo Fisher Scientific, cat. 15630080), 1X GlutaMAX supplement (Thermo Fisher Scientific, cat. 35050061), 0.1 mg/mL primocin (InvivoGen, San Diego, CA, cat. ant-pm-2), 10% defined fetal bovine serum, heat inactivated (HyClone Laboratories Inc., Logan, UT, cat. SH30070.03HI), 50% L-WRN conditioned media (ATCC, cat. CRL-3276), 1.25 mM N-Acetyl-L-cysteine (Sigma-Aldrich, cat. A9165), 10 mM nicotinamide (Sigma-Aldrich, cat. N0636), 1X B-27 supplement (Thermo Fisher Scientific, cat. 17504044), 1X N-2 supplement (Thermo Fisher Scientific, cat. 17502048), 50 ng/mL human EGF (Thermo Fisher Scientific, cat. PHG0311), and 10 microM Y-27632 dihydrochloride (Tocris Bioscience, cat. 1254). The K12877-001-R-J1-PDC line was cultured in 6I media, which includes all 6C/Colon 1B media plus 10 ng/mL human FGF-10 (PeproTech, cat. 100-26), 1 ng/mL human FGF-2 (PeproTech, cat. 100-18B), 1 µM prostaglandin E2 (Tocris Bioscience, cat. 2296), […] hydrocortisone (Sigma-Aldrich, cat. H4001), and […] bovine insulin (Sigma-Aldrich, cat. I6634). The K86415-001-R-J1-PDC line was cultured in 6D media, which includes all 6C/Colon 1B media components minus the L-WRN conditioned media. The 485176-168-R4-J1-PDC was cultured in PANC media, which includes all 6C/Colon 1B media plus 100 ng/mL human FGF-10 (PeproTech, cat. 100-26), 500 nM SB-431542 (Selleckchem, cat. S1067), and 10 nM gastrin (Tocris Bioscience, cat. 3006). […]
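Also: spheroids exposed to compound for seven days before viability readout.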

CC1(O)CCCC1n1c(=O)c(C(F)F)cc2cnc(NC3CCN(S(C)(=O)=O)CC3)nc21 (configuration not stated) + CCn1c(-c2cc(N3CCN(C)CC3)cnc2C(C)OC)c2c3cc(ccc31)-c1csc(n1)CC(NC(=O)C1CC1C)C(=O)N1CCCC(N1)C(=O)OCC(C)(C)C2
84.3 nM: IC50 (curve of first compound, second compound 0.03 µM)
56.9 nM: IC50 (curve of first compound, second compound 0.00949 µM)
inactive: viability, T/C (second compound 0.000949 µM, first compound 0.0316 µM) 71.3% | viability, T/C (second compound 0.000949 µM, first compound 0.1 µM) 34.3% | viability, T/C (second compound 0.000949 µM, first compound 0.316 µM) 21.8% | viability, T/C (second compound 0.000949 µM, first compound 1 µM) 21.3% | viability, T/C (second compound 0.000949 µM, first compound 3.16 µM) 22.5% | viability, T/C (second compound 0.000949 µM, first compound 10 µM) 3.27% | viability, T/C (second compound 0.003 µM, first compound 0.0316 µM) 73.1% | viability, T/C (second compound 0.003 µM, first compound 0.1 µM) 38.1% | viability, T/C (second compound 0.003 µM, first compound 0.316 µM) 25.3% | viability, T/C (second compound 0.003 µM, first compound 1 µM) 20.1% | viability, T/C (second compound 0.003 µM, first compound 3.16 µM) 21.5% | viability, T/C (second compound 0.003 µM, first compound 10 µM) 2.54% | viability, T/C (second compound 0.00949 µM, first compound 0.0316 µM) 60.6% | viability, T/C (second compound 0.00949 µM, first compound 0.1 µM) 41.4% | viability, T/C (second compound 0.00949 µM, first compound 0.316 µM) 22% | viability, T/C (second compound 0.00949 µM, first compound 1 µM) 23% | viability, T/C (second compound 0.00949 µM, first compound 3.16 µM) 19.6% | viability, T/C (second compound 0.03 µM, first compound 0.0316 µM) 70.8% | viability, T/C (second compound 0.03 µM, first compound 0.1 µM) 48.1% | viability, T/C (second compound 0.03 µM, first compound 0.316 µM) 23.6% | viability, T/C (second compound 0.03 µM, first compound 1 µM) 22.9% | viability, T/C (second compound 0.03 µM, first compound 3.16 µM) 19.2% | viability, T/C (second compound 0.0949 µM, first compound 0.0316 µM) 83.8% | viability, T/C (second compound 0.0949 µM, first compound 0.1 µM) 42% | viability, T/C (second compound 0.0949 µM, first compound 0.316 µM) 23.3% | viability, T/C (second compound 0.0949 µM, first compound 1 µM) 23.9% | viability, T/C (second compound 0.0949 µM, first compound 3.16 µM) 21.4% | viability, T/C (second compound 0.0949 µM, first compound 10 µM) 2.75% | viability, T/C (second compound 0.3 µM, first compound 0.0316 µM) 78.2% | viability, T/C (second compound 0.3 µM, first compound 0.1 µM) 40.7% | viability, T/C (second compound 0.3 µM, first compound 0.316 µM) 22.5% | viability, T/C (second compound 0.3 µM, first compound 1 µM) 22.3% | viability, T/C (second compound 0.3 µM, first compound 3.16 µM) 20.5% | viability, T/C (second compound 0.3 µM, first compound 10 µM) 2.63%
83.6 nM: IC50 (curve of first compound, second compound 0.0949 µM)
active: viability, T/C (second compound 0.00949 µM, first compound 10 µM) 2.74% | viability, T/C (second compound 0.03 µM, first compound 10 µM) 2.55%
78.1 nM: IC50 (curve of first compound, second compound 0.3 µM)
63.6 nM: IC50 (curve of first compound, second compound 0.000949 µM)
73.1 nM: IC50 (curve of first compound, second compound 0.003 µM)

C=CC(=O)N1CCN(c2nc(OCC3CCCN3C)nc3c(F)c(-c4nc(N)cc(C)c4C(F)(F)F)c(Cl)cc23)C(C)C1 (configuration not stated)
> 1000 nM: IC50 (compound alone, run of 06/10/2024) | IC50 (curve of compound)
inactive: viability, T/C (compound 0.1 µM) 102% [middle of 12 runs] | viability, T/C (compound 0.316 µM) 95.8% [middle of 12 runs] | viability, T/C (compound 1 µM) 85.1% [middle of 12 runs]

From PubChem BioAssay AID2060904 (Molecular Pharmacology Branch, DTP, NCI, 2025)
